Target: epidermal growth factor receptor (EGFR) (Homo sapiens, UniProt P00533)
Assay: SPR
Assay type: binding

Chain of epidermal growth factor receptor (EGFR) (P00533 25-1210): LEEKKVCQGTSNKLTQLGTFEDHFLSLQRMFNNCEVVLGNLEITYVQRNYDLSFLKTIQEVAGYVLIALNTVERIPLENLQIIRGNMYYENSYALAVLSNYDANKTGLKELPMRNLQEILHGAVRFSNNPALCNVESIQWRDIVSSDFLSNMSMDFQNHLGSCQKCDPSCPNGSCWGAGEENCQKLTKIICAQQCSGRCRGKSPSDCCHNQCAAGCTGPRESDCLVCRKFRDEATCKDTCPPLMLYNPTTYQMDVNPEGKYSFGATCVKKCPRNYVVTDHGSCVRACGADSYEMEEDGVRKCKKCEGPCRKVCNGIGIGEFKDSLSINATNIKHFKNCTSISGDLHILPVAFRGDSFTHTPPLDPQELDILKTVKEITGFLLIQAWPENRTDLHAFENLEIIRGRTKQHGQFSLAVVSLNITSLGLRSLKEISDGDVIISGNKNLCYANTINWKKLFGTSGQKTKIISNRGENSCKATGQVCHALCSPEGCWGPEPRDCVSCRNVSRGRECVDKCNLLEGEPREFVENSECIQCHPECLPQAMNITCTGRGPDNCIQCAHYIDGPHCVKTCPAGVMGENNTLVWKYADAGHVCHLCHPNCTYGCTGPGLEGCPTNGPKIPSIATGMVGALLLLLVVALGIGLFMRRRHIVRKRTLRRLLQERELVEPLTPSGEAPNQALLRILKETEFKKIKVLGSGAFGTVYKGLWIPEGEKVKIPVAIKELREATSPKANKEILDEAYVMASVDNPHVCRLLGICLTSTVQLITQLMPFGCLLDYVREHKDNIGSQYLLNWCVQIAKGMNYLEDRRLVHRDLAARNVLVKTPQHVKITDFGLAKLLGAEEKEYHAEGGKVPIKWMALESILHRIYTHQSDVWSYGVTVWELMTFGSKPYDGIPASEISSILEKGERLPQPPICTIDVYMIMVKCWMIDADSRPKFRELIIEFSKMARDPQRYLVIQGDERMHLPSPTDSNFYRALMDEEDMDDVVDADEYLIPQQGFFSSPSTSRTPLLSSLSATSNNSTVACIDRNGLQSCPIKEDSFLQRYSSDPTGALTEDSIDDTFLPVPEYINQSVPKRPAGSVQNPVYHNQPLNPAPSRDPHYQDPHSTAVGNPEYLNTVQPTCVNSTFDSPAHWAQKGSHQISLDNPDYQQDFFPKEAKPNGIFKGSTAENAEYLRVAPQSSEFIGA

Kd: 11.8 ± 2.4 µM
SMILES: Clc1ccc(C2=NN(c3nc(C45CC6CC(CC(C6)C4)C5)cs3)C(c3ccccc3)C2)c(Cl)c1 (stereo not shown) [3e, 4-(adamantan-1-yl)-2-(3-(2,4-dichlorophenyl)-5-phenyl-4,5-dihydro-1H-pyrazol-1-yl)thiazole]
